Data published in patent publication US10351549B2, “Amide derivatives having multimodal activity against pain” (priority 2015, dated 2019).

Test system: human σ1 receptor and human μ-opioid receptor
Assay: Human σ1 receptor and human μ-opioid receptor radioligand assays (μ and σ1 dual binding)
Design: key to μ and σ1 dual binding: +: Both Ki-μ and Ki-σ1>=500 nM; ++: One Ki<500 nM while the other Ki is >=500 nM; +++: Both Ki-μ and Ki-σ1<500 nM; ++++: Both Ki-μ and K1-σ1<100 nM
Settings: joint class for Ki at σ1 ([3H](+)-pentazocine, transfected HEK-293 membranes) and Ki at μ-opioid ([3H]-DAMGO, transfected CHO-K1 membranes)

CCC(=O)N(CCN1CCC(N(C)Cc2ccccc2)C1)c1ncccc1F (centres unmarked) [Example 1, N-(2-(3-(Benzyl(methyl)amino)pyrrolidin-1-yl)ethyl)-N-(3-fluoropyridin-2-yl)propionamide]
μ and σ1 dual binding: ++

CCC(=O)N(CCN1CCC(N(C)Cc2ccccc2)C1)c1ccccc1 (centres unmarked) [Example 2, N-(2-(3-(benzyl(methyl)amino)pyrrolidin-1-yl)ethyl)-N-phenylpropionamide]
Ki: < 500 nM

CCC(=O)N(CCN1CC[C@H](N(C)Cc2ccccc2)C1)c1ccccc1 [Example 3, (S)-N-(2-(3-(benzyl(methyl)amino)pyrrolidin-1-yl)ethyl)-N-phenylpropionamide]
μ and σ1 dual binding: ++

CCC(=O)N(CCN1CC[C@@H](N(C)Cc2ccccc2)C1)c1ccccc1 [Example 4, (R)-N-(2-(3-(benzyl(methyl)amino)pyrrolidin-1-yl)ethyl)-N-phenylpropionamide]
Ki: < 500 nM

CCC(=O)N(CCN1CCC(N(C)Cc2ccccc2)C1)c1cccc(C(F)(F)F)n1 (centres unmarked) [Example 5, N-(2-(3-(benzyl(methyl)amino)pyrrolidin-1-yl)ethyl)-N-(6-(trifluoromethyl)pyridin-2-yl)propionamide]
Ki: ≥ 500 nM

CCC(=O)N(CCN1CCC(N(C)Cc2ccccc2)C1)c1cccc(C(F)(F)F)n1 (centres unmarked) [Example 6]
μ and σ1 dual binding: ++

CCC(=O)N(CCN1CC(N(C)Cc2ccccc2)C1)c1cccc(C(F)(F)F)n1 [Example 9, N-(2-(3-(benzyl(methyl)amino)azetidin-1-yl)ethyl)-N-(6-(trifluoromethyl)pyridin-2-yl)propionamide]
μ and σ1 dual binding: ++

CCC(=O)N(CCN1CCC(N(C)CC(C)C)C1)c1cccc(C(F)(F)F)n1 (centres unmarked) [Example 12, N-(2-(3-(isobutyl(methyl)amino)pyrrolidin-1-yl)ethyl)-N-(6-(trifluoromethyl)pyridin-2-yl)propionamide]
Ki: ≥ 500 nM

CCOCCN(C)C1CCN(CCN(C(=O)CC)c2cccc(C(F)(F)F)n2)C1 (centres unmarked) [Example 16]
Ki: ≥ 500 nM

CCOCCN(C)C1CCN(CCN(C(=O)CC)c2cccc(C(F)(F)F)n2)C1 (centres unmarked) [Example 17]
Ki: ≥ 500 nM

CCC(=O)N(CCN1CC2CN(CC(C)C)CC2C1)c1cccc(C(F)(F)F)n1 (centres unmarked) [Example 18, N-(2-(5-isobutylhexahydropyrrolo[3,4-c]pyrrol-2(1H)-yl)ethyl)-N-(6-(trifluoromethyl)pyridin-2-yl)propionamide]
μ and σ1 dual binding: ++
